Assay [1] addresses WT c-Src (Gallus gallus (Chicken), UniProt P00523). Description: In vitro kinase assay, WT c-Src. The class given is biochemical. The method, then: (§1) In vitro kinase assays for c-Src variants were performed in 50 mM Tris (pH 8.0), 10 mM MgCl2 and 1 mg/mL BSA. When obtaining kinetic parameters (kcat, Km) kinase and peptide substrate (IYGEFKKK) (SEQ ID NO:51) concentrations were 2 nM and 500 μM, respectively, while ATP concentrations ranged from 2000-0.655 μM. Addition of nonradioactive ATP supplemented with ^32P ATP (3,000 Ci/mmol, NEN) was used to initiate kinase reactions. Time points were selected such that product formation never exceeded 10%. Reactions were quenched by spotting 3 μL quantities onto phosphocellulose sheets (P81, Whatman). Afterwards, the sheets were washed 3×5 minutes in 0.5% phosphoric acid and dried. Radioactivity was measured by phosphorimaging and recorded on a Typhoon fluorescence imager (Molecular Dynamics). Data were plotted as rate (min^−1) versus ATP concentration and fitted to the Michaelis-Menten equation, v=[(kcat)[S]]/(Km+[S]), using Kaleidagraph software (Synergy) to extract kinetic parameters. When obtaining IC50 values for the inhibitors, 2% (v/v) DMSO was included in kinase reactions. In these cases ATP, peptide, and enzyme concentrations were 15 nM, 100 μM and 5 nM, respectively, while inhibitor concentrations ranged from 10,000-0.610 nM. In all cases, a ten-minute preincubation step between the kinase and the inhibitor preceded addition of ATP and a fifteen-minute reaction. The data was fitted to a sigmoidal dose-response curve using Prism 4.0c (GraphPad Software) to obtain IC50 values.

Assay [2] has as its target T338C c-Src (Gallus gallus (Chicken), UniProt P00523, T338C). The assay can be described thus: In vitro kinase assay, T338C c-Src (c-Src-ES1). It is filed as biochemical. Particulars: for fold drop in potency against T338C c-Src relative to compound 9: relative to isopropyl vinylsulfonamide 9. How it is done: as §1, with “In all cases, a ten-minute preincubation step between the kinase and the inhibitor preceded addition of ATP and a fifteen-minute reaction.” left out

Where [3] appears, read: inhibitor preincubated with Src ten minutes prior to addition of ATP, read-out: WT c-Src IC50.
Where [4] appears, read: inhibitor preincubated with Src ten minutes prior to addition of ATP, read-out: T338C c-Src IC50.

pIC50: −log10 of the molar value. Where two headings read alike, the source gives them in different places.

Usually pIC50 stands for −log10 of the IC50, conventionally taken in molar units. In the case of `C=CC(=O)Nc1cccc(-c2nn(C(C)C)c3ncnc(N)c23)c1` [Compound 1, N-(3-(4-amino-1-isopropyl-1H-pyrazolo[3,4-d]pyrimidin-3-yl)phenyl)acrylamide], the results for the pIC50 in assay [1] (setting [3]) and in assay [2] (setting [4]) were 5.63 and 6.38, respectively.
On to `C=CC(=O)Nc1cccc(-c2nn(C(C)C)c3ncncc23)c1` [Compound 2, N-(3-(1-isopropyl-1H-pyrazolo[3,4-d]pyrimidin-3-yl)phenyl)acrylamide], for which the pIC50 in assay [1] (10 min preincubation with inhibitor prior to addition of ATP, read-out: IC50 against WT c-Src) is at most 5.30; in assay [1] (setting [3]), below 5.30; in assay [2] (10 min preincubation with inhibitor prior to addition of ATP, read-out: IC50 against T338C c-Src) it was at most 5.30; in assay [2] (setting [4]), below 5.30.
Take `C=CS(=O)(=O)Nc1ccc(-c2nn(C(C)C)c3ncnc(N)c23)cc1` [Compound 5, N-(4-(4-amino-1-isopropyl-1H-pyrazolo[3,4-d]pyrimidin-3-yl)phenyl)ethenesulfonamide]: the pIC50 in assay [1] (setting [3]) was 6.05; in assay [2] (setting [4]), 6.84. Besides, the “fold increase in inhibition of T338C relative to WT c-Src” value in assay [2] (T338C vs WT c-Src) is reported as around 6 fold.
Turning to `CC(C)n1nc(-c2cccc(NC(=O)CCl)c2)c2c(N)ncnc21` [Compound 6, N-(3-(4-amino-1-isopropyl-1H-pyrazolo[3,4-d]pyrimidin-3-yl)phenyl)-2-chloroacetamide], the pIC50 is below 5.30 in assay [1] (setting [3]) and 6.09 in assay [2] (setting [4]).
The like results for `C=CC(=O)Nc1cccc(Cc2nn(C(C)C)c3ncnc(N)c23)c1` [Compound 7, N-(3-((4-amino-1-isopropyl-1H-pyrazolo[3,4-d]pyrimidin-3-yl)methyl)phenyl)acrylamide] were, in that order, below 5.30 and 5.56.
Regarding `C=CC(=O)Nc1ccc(Cc2nn(C(C)C)c3ncnc(N)c23)cc1` [Compound 8, N-(4-((4-amino-1-isopropyl-1H-pyrazolo[3,4-d]pyrimidin-3-yl)methyl)phenyl)acrylamide], the pIC50 in assay [1] (setting [3]) and in assay [2] (setting [4]) was below 5.30 each time.
For `C=CS(=O)(=O)Nc1ccc(Cc2nn(C(C)C)c3ncnc(N)c23)cc1` [Compound 10, N-(4-((4-amino-1-isopropyl-1H-pyrazolo[3,4-d]pyrimidin-3-yl)methyl)phenyl)ethenesulfonamide], the pIC50 in assay [1] (setting [3]) is 5.51; in assay [2] (setting [4]), 5.75.
Consider `CCS(=O)(=O)Nc1cccc(Cc2nn(C(C)C)c3ncnc(N)c23)c1` [Compound 11, N-(3-((4-amino-1-isopropyl-1H-pyrazolo[3,4-d]pyrimidin-3-yl)methyl)phenyl)ethanesulfonamide], for which the pIC50 in assay [1] (setting [3]) was below 5.30; in assay [2] (setting [4]), 5.46. Further, in assay [2], the “fold drop in potency against T338C c-Src relative to compound 9” value was 23 fold.
For the compound `CC(C)n1nc(Cc2cccc(NC(=O)CCl)c2)c2c(N)ncnc21` [Compound 12, N-(3-((4-amino-1-isopropyl-1H-pyrazolo[3,4-d]pyrimidin-3-yl)methyl)phenyl)-2-chloroacetamide], the pIC50 in assay [1] (setting [3]) and in assay [2] (setting [4]) was below 5.30 throughout.
Turning to `C=CS(=O)(=O)Nc1cccc(Cc2nn(C)c3ncnc(N)c23)c1` [Compound 15, N-(3-((4-amino-1-methyl-1H-pyrazolo[3,4-d]pyrimidin-3-yl)methyl)phenyl)ethenesulfonamide], the pIC50 was below 5.30 in assay [1] (setting [3]) and 5.50 in assay [2] (setting [4]). Also, the “fold drop in potency against T338C c-Src relative to compound 9” value in assay [2] came to 21 fold.
The matching figures for `C=CS(=O)(=O)Nc1cccc(Cc2nn(C(C)(C)C)c3ncnc(N)c23)c1` [Compound 16, N-(3-((4-amino-1-tert-butyl-1H-pyrazolo[3,4-d]pyrimidin-3-yl)methyl)phenyl)ethenesulfonamide]: below 5.30, 6.21 and 4 fold.
Regarding `C=CS(=O)(=O)Nc1cccc(Cc2nn(C3CCCC3)c3ncnc(N)c23)c1` [Compound 17, N-(3-((4-amino-1-cyclopentyl-1H-pyrazolo[3,4-d]pyrimidin-3-yl)methyl)phenyl)ethenesulfonamide], the pIC50 is below 5.30 in assay [1] (setting [3]) and 6.71 in assay [2] (setting [4]).
